What was measured:
[1] = system: E. coli BW25113, E. coli JW2496-3, E. coli ATCC 25922; experiment: Minimal inhibitory concentration assay (bactericidal/bacteriostatic assessment); type: cell-based; settings: dilution series 100-1.7 μM
Description: The intended effect of a SurA inhibitor should be the induction of a disturbance of the outer membrane composition resulting in an increased susceptibility to antibiotic treatment. Of note, Vancomycin is typically not used to treat infections with Gram-negative bacteria, because it is excluded by the OM and not efficient at concentrations that could be achieved in patients. However, at appropriate dosing in vitro it can be used to detect outer membrane defects. For determining a potential sensitizing effect of Vancomycin treatment, the inventors first tested whether the compounds at hand were bactericidal per se. Therefore, the inventors performed a minimal inhibitory concentration (MIC) assay. To this end, 5 ml overnight cultures of E. coli BW25113 (Keio-Collection reference strain), E. coli JW2496-3 (Keio-Collection single gene knockout for bamB, which suffers from decreased outer membrane integrity) and E. coli ATCC 25922 (a reference strain recommended for antibiotic susceptibility testing) were grown in Mueller Hinton Broth, Cation adjusted (MHB-II). The next day, the OD was adjusted to obtain 1*10^8 CFU/ml using fresh MHB-II. Next, this bacterial solution was diluted 1:100 into 20 ml fresh MHB-II. 50 μl of this bacteria solution were then transferred into each well of a 96-well plate prefilled with 50 μl MHB-II supplemented with the desired compounds. The test plates for the bactericidal assessment contained dilution series of the compounds from 100-1.7 μM. Plates were sealed with a gas permeable membrane and incubated o/n at 37° C. in a humid chamber without shaking. After o/n incubation, bacterial growth was quantified by measuring the optical density at 600 nm wavelength in a multiplate reader. Compounds showing no growth inhibition at 100 μM were considered non-bactericidal. Of note, the bactericidal effect of Vancomycin was assessed similarly for each test strain using Vancomycin concentrations ranging from […]. This was done to identify a Vancomycin concentration at which the strains just managed to survive.

[2] = system: E. coli ATCC 25922; experiment: Sensitizer MIC assay (vancomycin); type: cell-based; settings: vancomycin; 100 μM compound; type strain
Procedure: (§1) To test for the sensitizer properties of the compounds, the inventors then performed a sensitizer MIC assay. To this end, E. coli BW25113, E. coli JW2496-3, and E. coli ATCC 25922 inocula were prepared as described above. Each well of a 96-well plate was prefilled with a fixed compound concentration of 100 μM and a dilution series of Vancomycin ranging from […]. A sensitizing effect was defined as reduction of the MIC value of Vancomycin of the respective test strain.

[3] = system: E. coli BW25113; experiment: Sensitizer MIC assay (vancomycin); type: cell-based; settings: 100 μM compound, wildtype strain
Procedure: as §1

[4] = system: E. coli JW2496-3; experiment: Sensitizer MIC assay (vancomycin); type: cell-based; settings: 100 μM compound, more susceptible strain
Procedure: as §1

[5] = target: SurA (Escherichia coli, UniProt P0ABZ6); experiment: Luciferase-based SurA activity assay (primary assay, in-house); type: biochemical, E. coli; settings: n/d: no signal detected; for Primary Assay ICmax: QHL-10 derivatives, dose response up to 125 μM; for Primary Assay Amplitude: amplitude of signal
SurA, sequence (P0ABZ6 21-428): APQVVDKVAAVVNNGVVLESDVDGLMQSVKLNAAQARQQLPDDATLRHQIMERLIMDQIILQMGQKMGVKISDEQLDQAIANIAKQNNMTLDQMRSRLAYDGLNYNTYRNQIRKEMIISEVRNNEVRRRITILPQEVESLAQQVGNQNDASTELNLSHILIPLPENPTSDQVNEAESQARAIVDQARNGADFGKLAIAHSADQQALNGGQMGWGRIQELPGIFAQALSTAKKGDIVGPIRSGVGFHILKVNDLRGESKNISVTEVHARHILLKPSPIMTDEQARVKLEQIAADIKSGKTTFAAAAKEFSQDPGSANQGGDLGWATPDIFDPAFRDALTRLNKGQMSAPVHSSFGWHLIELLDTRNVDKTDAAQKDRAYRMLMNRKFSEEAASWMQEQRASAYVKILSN
Description: The biological function of SurA is to bind and to keep outer membrane proteins that have reached the periplasm in an unfolded but folding-competent state. The inventors' assay is based on this interaction and uses firefly Luciferase (fLuc) as a non-native substrate. […] This is exploited in the assay (FIG. 3). The loss of tertiary structure of fLuc leads to the exposure of binding sites for SurA. It is known that SurA binds selectively to a special group of substrates. These substrates have in common the specific patterns of hydrophobic amino acids that are highly enriched in the beta strands of integral outer membrane proteins. These motifs are present in OMPs of all Gram-negative bacteria and in fLuc as well. Upon mild heat treatment of fLuc and its subsequent partial unfolding, fLuc is accepted as a substrate by SurA. Of note, these intermediates served as reporter substrates to determine the activity of a […] folding chaperone. […] This interaction remains stable upon temperature reduction. Next, the temperature of the assay is reduced to room temperature and luciferase activity is subsequently measured by addition of Luciferin and ATP. In conditions without SurA, fLuc will refold into its active conformation resulting in a luminescence signal.
In short, the Luciferase based SurA activity assay was performed in SurA Activity Assay Buffer (40 mM HEPES pH 7.4, 20 mM MgSO4, 0.5 g/I BSA). SurA aliquots were thawn at RT, activated by mild heat treatment and cooled down to RT for 10 min. […] Solution A containing 10 mM ATP as well as 0.3 mM Luciferin (Promega Beetle Luciferin, Potassium Salt) in water was prepared. Luciferase working solution was prepared by diluting 1 ml Luciferase working stock (100 nM) with 9 ml assay buffer. 33 μl of the protein solution were added to every 2nd row of a well of a 384-well PS, white, flat bottom plate. […] Subsequently, 2 μl of compound in DMSO were added in quadruplicates (4 wells each of protein solution and buffer controls). These compound solutions could contain either various compounds or different dilutions of the same compound allowing screening inhibitor activity in a dose dependent manner. After compound addition, plates were incubated 15 min at RT. After this incubation, 5 μl of Luciferase working solution were added to each well. Next, the plates were incubated 25 min at 38° C. to partially unfold the Luciferase. Subsequently, the assay plate was cooled for 5 min at 4° C. followed by 10 min incubation at RT prior to luminescence measurement. Luminescence was measured in a TECAN infinite M200 pro plate reader for each well individually after injection of 10 μl Solution A.

Compound	Bacteriostatic MIC Assay Result [1]	Sensitizer MIC Assay (log2-fold reduction of MIC in presence of compound) ATCC25922 [2] [log2-fold]	Sensitizer MIC Assay (log2-fold reduction of MIC in presence of compound) BW25113 [3] [log2-fold]	Sensitizer MIC Assay (log2-fold reduction of MIC in presence of compound) JW2496-3 [4] [log2-fold]	Primary Assay ICmax [5] [µM]	Primary Assay Amplitude [5]
NC(=O)c1nc(-c2ccc(F)c(N)c2)[nH]c1NC(=O)c1ccc(-c2ccccc2)cc1 [Compound 3d, 5-([1,1′-biphenyl]-4-carboxamido)-2-(3-amino-4-fluorophenyl)-1H-imidazole-4-carboxamide]	non-bacteriostatic	0	0	0	16	high
CCOc1ccc2ccccc2c1C(=O)Nc1[nH]c(-c2cccc(N)c2)nc1C(N)=O [Compound 3e, 2-(3-aminophenyl)-5-(2-ethoxy-1-naphthamido)-1H-imidazole-4-carboxamide]	non-bacteriostatic	0	0	0	64	low
CCOc1ccc2ccccc2c1C(=O)Nc1[nH]c(-c2ccccc2O)nc1C(N)=O [Compound 3f, 5-(2-ethoxy-1-naphthamido)-2-(2-hydroxyphenyl)-1H-imidazole-4-carboxamide]	non-bacteriostatic	1	1	2	16	low
CCOc1ccc2ccccc2c1C(=O)Nc1[nH]c(-c2ccc(F)c(N)c2)nc1C(N)=O [Compound 3g, 2-(3-amino-4-fluorophenyl)-5-(2-ethoxy-1-naphthamido)-1H-imidazole-4-carboxamide]	non-bacteriostatic	0	0	0	64	low

From US20240336573A1, “COMPOUND FOR THE TREATMENT AND PROPHYLAXIS OF INFECTIOUS DISEASES” (Eberhard Karls Universität Tübingen Medizinische Fakultät, priority 2021, published 2024)
